From patent US20260132132A1, “3A,4,5,6-TETRAHYDRO-1 H-PYRAZOLO[3,4-C]PYRIDIN-7(7AH)-ONE DERIVATIVES AS FACTOR XIIA INHIBITORS” (KALVISTA PHARMACEUTICALS LIMITED, priority 2022, published 2026)

What was measured:
Type in all cases: biochemical
FXa = FXa (Homo sapiens, UniProt P00742); assay: Related protease inhibition: FXa, fluorogenic substrate; conditions: fluorogenic substrate at Km, 25° C., H1-H3 = % activity at 40 μM; for activity at 40 µM: read-out: IC50 (human FXa) nM
Method: (§1) Human serine protease enzyme Plasma Kallikrein, KLK1, FXa, Plasmin, Thrombin and Trypsin were assayed for enzymatic activity using an appropriate fluorogenic substrate at Km concentration, FXIa at fixed substrate concentration of 100 μM and various concentrations of the test compound.

Thrombin = Thrombin (Homo sapiens, UniProt P00734); assay: Related protease inhibition: Thrombin, fluorogenic substrate; conditions: fluorogenic substrate at Km, 25° C., H1-H3 = % activity at 40 μM; for activity at 40 µM: read-out: IC50 (human thrombin) nM
Method: as §1

[1] = molecular target: T1, Human Factor XIIa (hFXIIa) (Homo sapiens, UniProt P00748); assay: Determination of Human Factor XIIa (hFXIIa) inhibition, fluorogenic substrate IC50 assay; conditions: fluorogenic substrate H-DPro-Phe-Arg-AFC at Km, 25° C., read-out: Human FXIIa IC50
T1 construct: purchased Enzyme Research Laboratories
T1 sequence (P00748 373-615 limits assumed): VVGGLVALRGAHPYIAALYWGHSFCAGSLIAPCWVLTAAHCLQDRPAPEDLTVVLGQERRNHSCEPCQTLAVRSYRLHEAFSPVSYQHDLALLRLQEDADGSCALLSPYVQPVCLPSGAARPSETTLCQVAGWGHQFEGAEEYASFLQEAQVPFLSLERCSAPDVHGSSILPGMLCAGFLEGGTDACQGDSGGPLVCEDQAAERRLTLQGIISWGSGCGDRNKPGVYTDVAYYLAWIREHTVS
T1 sequence (P00748 20-372 partner limits assumed): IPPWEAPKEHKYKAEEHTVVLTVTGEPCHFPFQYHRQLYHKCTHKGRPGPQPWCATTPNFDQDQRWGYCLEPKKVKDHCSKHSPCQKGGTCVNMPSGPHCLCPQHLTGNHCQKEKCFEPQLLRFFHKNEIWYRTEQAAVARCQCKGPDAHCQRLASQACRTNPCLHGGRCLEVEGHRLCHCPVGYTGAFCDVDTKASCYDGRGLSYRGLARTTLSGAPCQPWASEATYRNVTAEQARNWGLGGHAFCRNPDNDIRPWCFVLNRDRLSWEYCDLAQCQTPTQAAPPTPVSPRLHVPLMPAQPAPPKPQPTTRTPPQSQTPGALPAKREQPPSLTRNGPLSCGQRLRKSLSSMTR
Method: Determination of Human Factor XIIa (hFXIIa) inhibition
The Km for the cleavage of the substrate by hFXIIa was determined by standard transformation of the Michaelis-Menten equation, with subsequent inhibition assays performed at substrate Km concentration.

FXa, sequence (P00742 235-488 limits assumed): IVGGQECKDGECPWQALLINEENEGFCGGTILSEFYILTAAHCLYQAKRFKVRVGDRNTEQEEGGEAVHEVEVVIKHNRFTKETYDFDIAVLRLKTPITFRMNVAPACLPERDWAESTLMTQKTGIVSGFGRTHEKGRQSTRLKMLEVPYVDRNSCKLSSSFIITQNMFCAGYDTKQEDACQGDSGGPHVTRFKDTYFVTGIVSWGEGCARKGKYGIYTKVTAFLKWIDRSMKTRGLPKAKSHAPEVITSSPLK
FXa, sequence (P00742 41-179 partner limits assumed): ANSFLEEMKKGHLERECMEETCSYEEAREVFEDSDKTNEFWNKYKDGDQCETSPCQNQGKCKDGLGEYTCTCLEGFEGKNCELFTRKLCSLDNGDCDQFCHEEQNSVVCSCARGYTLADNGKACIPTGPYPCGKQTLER

| Compound | IC50 (FXa) [nM] | IC50 (Thrombin) [nM] | IC50 [1] [nM] | activity at 40 µM (FXa) [%] | activity at 40 µM (Thrombin) [%] |
| --- | --- | --- | --- | --- | --- |
| CN1CCc2ccc(N3CCc4c(C(=O)NCC5(N)CC5)nn(-c5cccc(Cl)c5)c4C3=O)cc2C1=O [Example 1427, N-((1-aminocyclopropyl)methyl)-1-(3-chlorophenyl)-6-(2-methyl-1-oxo-1,2,3,4-tetrahydroisoquinolin-7-yl)-7-oxo-4,5,6,7-tetrahydro-1H-pyrazolo[3,4-c]pyridine-3-carboxamide] |  |  | 300 to 1000 | > 80 | > 80 |
| CCNC(=O)c1nn(-c2cccc(Cl)c2)c2c1CCN(c1ccc3c(c1)NCCO3)C2=O [Example 1422, 1-(3-chlorophenyl)-6-(3,4-dihydro-2H-benzo[b][1,4]oxazin-6-yl)-N-ethyl-7-oxo-4,5,6,7-tetrahydro-1H-pyrazolo[3,4-c]pyridine-3-carboxamide] |  |  | 10000 to 40000 | 20 to 80 | 20 to 80 |
| COCCNC(=O)c1nn(-c2cccc(Cl)c2)c2c1CCN(c1ccc3c(c1)C(=O)N(C)CC3)C2=O [Example 1410, 1-(3-chlorophenyl)-N-(2-methoxyethyl)-6-(2-methyl-1-oxo-1,2,3,4-tetrahydroisoquinolin-7-yl)-7-oxo-4,5,6,7-tetrahydro-1H-pyrazolo[3,4-c]pyridine-3-carboxamide] |  |  | 300 to 1000 | 20 to 80 | < 20 |
| CN1CCc2ccc(N3CCc4c(C(=O)N[C@@H]5COC[C@@H]5O)nn(-c5cccc(Cl)c5)c4C3=O)cc2C1=O [Example 1412, 1-(3-chlorophenyl)-N-((3R,4R)-4-hydroxytetrahydrofuran-3-yl)-6-(2-methyl-1-oxo-1,2,3,4-tetrahydroisoquinolin-7-yl)-7-oxo-4,5,6,7-tetrahydro-1H-pyrazolo[3,4-c]pyridine-3-carboxamide] |  |  | 300 to 1000 | 20 to 80 | 20 to 80 |
| CCNC(=O)c1nn(-c2cccc(OC)n2)c2c1CCN(c1ccc3c(c1)C(=O)N(C)CC3)C2=O [Example 2037, N-ethyl-1-(6-methoxypyridin-2-yl)-6-(2-methyl-1-oxo-1,2,3,4-tetrahydroisoquinolin-7-yl)-7-oxo-4,5,6,7-tetrahydro-1H-pyrazolo[3,4-c]pyridine-3-carboxamide] |  |  | 10000 to 40000 | > 80 | > 80 |
| CCNC(=O)c1nn(-c2ccc(O)c(Cl)c2)c2c1CCN(c1ccc3c(c1)C(=O)N(C)CC3)C2=O [Example 2054, 1-(3-chloro-4-hydroxyphenyl)-N-ethyl-6-(2-methyl-1-oxo-1,2,3,4-tetrahydroisoquinolin-7-yl)-7-oxo-4,5,6,7-tetrahydro-1H-pyrazolo[3,4-c]pyridine-3-carboxamide] |  |  | 3000 to 10000 | > 80 | > 80 |
| CN1CCc2ccc(N3CCc4c(C(=O)N[C@H]5COC[C@@H]5O)nn(-c5cccc(Cl)c5)c4C3=O)cc2C1=O [Example 1415, 1-(3-chlorophenyl)-N-((3S,4R)-4-hydroxytetrahydrofuran-3-yl)-6-(2-methyl-1-oxo-1,2,3,4-tetrahydroisoquinolin-7-yl)-7-oxo-4,5,6,7-tetrahydro-1H-pyrazolo[3,4-c]pyridine-3-carboxamide] |  |  | 100 to 300 | > 80 | > 80 |
| O=C(O)c1nn(-c2cccc(Cl)c2)c2c1CCN(c1cccc(CN3CCCCC3)c1)C2=O [Example 1232, 1-(3-chlorophenyl)-7-oxo-6-(3-(piperidin-1-ylmethyl)phenyl)-4,5,6,7-tetrahydro-1H-pyrazolo[3,4-c]pyridine-3-carboxylic acid] | > 40000 |  | 1000 to 3000 |  |  |
| CN1CCc2ccc(N3CCc4c(C(=O)NC(CO)c5cccnc5)nn(-c5cccc(Cl)c5)c4C3=O)cc2C1=O (stereo not drawn) [Example 1187, 1-(3-chlorophenyl)-N-(2-hydroxy-1-(pyridin-3-yl)ethyl)-6-(2-methyl-1-oxo-1,2,3,4-tetrahydroisoquinolin-7-yl)-7-oxo-4,5,6,7-tetrahydro-1H-pyrazolo[3,4-c]pyridine-3-carboxamide] | > 40000 |  | 300 to 1000 |  |  |

Other lines, results leading:

| IC50 (FXa) [nM] | IC50 (Thrombin) [nM] | IC50 [1] [nM] | activity at 40 µM (FXa) [%] | activity at 40 µM (Thrombin) [%] | Compound |
| --- | --- | --- | --- | --- | --- |
| 10000 to 40000 | 10000 to 40000 | 10 to 100 |  |  | Cc1cc(CNC(=O)c2nn(-c3cccc(Cl)c3)c3c2CCN(c2ccc4c(c2)C(=O)N(CC(F)(F)F)CCO4)C3=O)n[nH]1 [Example 1378, 1-(3-chlorophenyl)-N-((5-methyl-1H-pyrazol-3-yl)methyl)-7-oxo-6-(5-oxo-4-(2,2,2-trifluoroethyl)-2,3,4,5-tetrahydrobenzo[f][1,4]oxazepin-7-yl)-4,5,6,7-tetrahydro-1H-pyrazolo[3,4-c]pyridine-3-carboxamide] |
|  |  | 100 to 300 | > 80 | > 80 | CN1CCc2ccc(N3CCc4c(C(=O)NC5COCC56CC6)nn(-c5cccc(Cl)c5)c4C3=O)cc2C1=O (stereo not drawn) [Example 1438, 1-(3-chlorophenyl)-6-(2-methyl-1-oxo-1,2,3,4-tetrahydroisoquinolin-7-yl)-7-oxo-N-(5-oxaspiro[2.4]heptan-7-yl)-4,5,6,7-tetrahydro-1H-pyrazolo[3,4-c]pyridine-3-carboxamide] |
| 3000 to 10000 | > 100000 | 100 to 300 |  |  | CN1CCc2ccc(N3CCc4c(C(=O)NC5CCCC5)nn(-c5cccc(Cl)c5)c4C3=O)cc2C1 [Example 1044, 1-(3-chlorophenyl)-N-cyclopentyl-6-(2-methyl-1,2,3,4-tetrahydroisoquinolin-7-yl)-7-oxo-4,5,6,7-tetrahydro-1H-pyrazolo[3,4-c]pyridine-3-carboxamide] |
|  |  | 10 to 100 | > 80 | > 80 | CN1CCOc2ccc(N3CCc4c(C(=O)NCC5CC5)nn(-c5cccc(Cl)c5F)c4C3=O)cc2C1=O [Example 2046, 1-(3-chloro-2-fluorophenyl)-N-(cyclopropylmethyl)-6-(4-methyl-5-oxo-2,3,4,5-tetrahydrobenzo[f][1,4]oxazepin-7-yl)-7-oxo-4,5,6,7-tetrahydro-1H-pyrazolo[3,4-c]pyridine-3-carboxamide] |
|  |  | 100 to 300 | 20 to 80 | 20 to 80 | CN1CCc2ccc(N3CCc4c(C(=O)N[C@H]5COC[C@H]5O)nn(-c5cccc(Cl)c5)c4C3=O)cc2C1=O [Example 1416, 1-(3-chlorophenyl)-N-((3S,4S)-4-hydroxytetrahydrofuran-3-yl)-6-(2-methyl-1-oxo-1,2,3,4-tetrahydroisoquinolin-7-yl)-7-oxo-4,5,6,7-tetrahydro-1H-pyrazolo[3,4-c]pyridine-3-carboxamide] |
| 3000 to 10000 |  | 10 to 100 |  |  | CCN1CCOc2ccc(N3CCc4c(C(=O)NCc5cc(C)[nH]n5)nn(-c5cccc(Cl)c5)c4C3=O)cc2C1=O [Example 1352, 1-(3-chlorophenyl)-6-(4-ethyl-5-oxo-2,3,4,5-tetrahydrobenzo[f][1,4]oxazepin-7-yl)-N-((5-methyl-1H-pyrazol-3-yl)methyl)-7-oxo-4,5,6,7-tetrahydro-1H-pyrazolo[3,4-c]pyridine-3-carboxamide] |
| 3000 to 10000 |  | 10 to 100 |  |  | CCN1CCc2ccc(N3CCc4c(C(=O)N[C@H](CO)c5ccccc5)nn(-c5cccc(Cl)c5)c4C3=O)cc2C1 [Example 1051, (S)-1-(3-chlorophenyl)-6-(2-ethyl-1,2,3,4-tetrahydroisoquinolin-7-yl)-N-(2-hydroxy-1-phenylethyl)-7-oxo-4,5,6,7-tetrahydro-1H-pyrazolo[3,4-c]pyridine-3-carboxamide] |
| > 40000 |  | 10 to 100 |  |  | Cc1cc(C)c(CNC(=O)c2nn(-c3cccc(Cl)c3)c3c2CCN(c2ccc4c(c2)C(=O)N(C)CC4)C3=O)cn1 [Example 1189, 1-(3-chlorophenyl)-N-((4,6-dimethylpyridin-3-yl)methyl)-6-(2-methyl-1-oxo-1,2,3,4-tetrahydroisoquinolin-7-yl)-7-oxo-4,5,6,7-tetrahydro-1H-pyrazolo[3,4-c]pyridine-3-carboxamide] |
| 3000 to 10000 |  | 10 to 100 |  |  | Cc1cc(CNC(=O)c2nn(-c3cccc(Cl)c3)c3c2CCN(c2ccc4c(c2)C(=O)N(CCO)CCC4)C3=O)nn1C [Example 1305, 1-(3-chlorophenyl)-N-((1,5-dimethyl-1H-pyrazol-3-yl)methyl)-6-(2-(2-hydroxyethyl)-1-oxo-2,3,4,5-tetrahydro-1H-benzo[c]azepin-8-yl)-7-oxo-4,5,6,7-tetrahydro-1H-pyrazolo[3,4-c]pyridine-3-carboxamide] |
